As a reminder, the IC50 is the concentration that gives 50% inhibition.

Results on 32 compounds are retold here after patent publication US9187472B2 (AbbVie Inc., priority 2012, dated 2015).

In the assay the test system is PC3 cells. The assay can be described thus: NAMPT Cell Proliferation Assay. The assay is classed as cell-based. Particulars: Homo sapiens, PC-3, 120 h, 5 days incubation, cell viability by Cell Titer Glo. Here is the method:
NAMPT Cell Proliferation Assay
PC3 cells were seeded in 96-well black plates (Corning #3904) at 500 cells/well in 90 μl of RPMI media containing 10% heat-inactivated FBS and incubated overnight at 37° C. and 5% CO2 to allow cells to attach to wells. The following day, test compounds were serially diluted in neat DMSO to 1000× final concentrations prior to dilution with RPMI media to 10× and 1% DMSO. Ten μL of the 10× compounds were then transferred to wells containing cells to produce a dose response of 10-fold dilutions from 10 μM to 1×10^−5 μM. Cells were incubated for 5 days at 37° C. and 5% CO2, then cell viability was measured using Cell Titer Glo reagent (Promega #G7571). Percent inhibition values were calculated and fitted to a sigmoidal dose response curves using Assay Explorer software to determine IC50s.
In turn, `O=C(NCc1ccn2ccnc2c1)Nc1ccc(C2CCN(C(=O)c3cncc4ccccc34)CC2)cc1` [Example 1027, 1-(imidazo[1,2-a]pyridin-7-ylmethyl)-3-{4-[1-(isoquinolin-4-ylcarbonyl)piperidin-4-yl]phenyl}urea] displayed a half-maximal inhibitory concentration (IC50) of 2.28 nM.

The compound `Cc1cccc(C(=O)N2CCC(c3ccc(C(=O)NCc4ccn5ccnc5c4)cc3)CC2)c1` [Example 923, N-(imidazo[1,2-a]pyridin-7-ylmethyl)-4-[1-(3-methylbenzoyl)piperidin-4-yl]benzamide] had a concentration for half-maximal inhibition (IC50) of 4.58 nM. This IC50 is about 2-fold higher than that of the compound before.

In turn, `COc1cccc(OC)c1C(=O)N1CCC(c2ccc(NC(=O)NCc3ccn4ccnc4c3)cc2)CC1` [Example 949, 1-{4-[1-(2,6-dimethoxybenzoyl)piperidin-4-yl]phenyl}-3-(imidazo[1,2-a]pyridin-7-ylmethyl)urea] yielded an IC50 of 25.4 nM.

For the compound `CCn1cc(C(=O)N2CCC(c3ccc(NC(=O)NCc4ccn5ccnc5c4)cc3)CC2)c(C(C)C)n1` [Example 1134, 1-[4-(1-{[1-ethyl-3-(propan-2-yl)-1H-pyrazol-4-yl]carbonyl}piperidin-4-yl)phenyl]-3-(imidazo[1,2-a]pyridin-7-ylmethyl)urea], the half-maximal inhibitory concentration (IC50) was 5.51 nM.

Consider `CC(C)(C)C(=O)N1CCC(c2ccc(NC(=O)NCc3ccn4ccnc4c3)c(F)c2)CC1` [Example 1070, 1-{4-[1-(2,2-dimethylpropanoyl)piperidin-4-yl]-2-fluorophenyl}-3-(imidazo[1,2-a]pyridin-7-ylmethyl)urea], for which inhibition was half-maximal at 0.857 nM (IC50).

Take `COc1ccc(OC)c(C(=O)N2CCC(c3ccc(NC(=O)NCc4ccn5ccnc5c4)cc3)CC2)c1` [Example 946, 1-{4-[1-(2,5-dimethoxybenzoyl)piperidin-4-yl]phenyl}-3-(imidazo[1,2-a]pyridin-7-ylmethyl)urea]: it took 5.94 nM to reach half-maximal inhibition (IC50).

On to `CC(C)c1nc(C(=O)N2CCC(c3ccc(C(=O)NCc4ccn5ccnc5c4)cc3)CC2)cs1` [Example 1108, N-(imidazo[1,2-a]pyridin-7-ylmethyl)-4-(1-{[2-(propan-2-yl)-1,3-thiazol-4-yl]carbonyl}piperidin-4-yl)benzamide], for which the IC50 came out at 20.1 nM. Compared with the last compound, the IC50 is about 3.4-fold higher.

Compound `Cc1nn(C)c(C(=O)N2CCC(c3ccc(NC(=O)NCc4ccn5ccnc5c4)cc3)CC2)c1Cl` [Example 1124, 1-(4-{1-[(4-chloro-1,3-dimethyl-1H-pyrazol-5-yl)carbonyl]piperidin-4-yl}phenyl)-3-(imidazo[1,2-a]pyridin-7-ylmethyl)urea] yielded a 50% inhibitory concentration (IC50) of 0.344 nM.

In turn, `O=C(Cc1ccn2ccnc2c1)Nc1ccc(C2CCN(C(=O)c3ccccc3)CC2)cc1F` [Example 1081, N-[4-(1-benzoylpiperidin-4-yl)-2-fluorophenyl]-2-(imidazo[1,2-a]pyridin-7-yl)acetamide] gave an IC50 of 195 nM.

Regarding `O=C(NCc1cn2ccnc2cn1)c1ccc(C2CCN(S(=O)(=O)c3ccccc3)CC2)cc1` [Example 864, N-(imidazo[1,2-a]pyrazin-6-ylmethyl)-4-[1-(phenylsulfonyl)piperidin-4-yl]benzamide], the IC50 is 67.2 nM.

Consider `CC1(Cn2cc(-c3ccc(C(=O)NCc4ccn5ccnc5c4)s3)cn2)CCN(C(=O)CCOCCOCCOCCOCCN)CC1` [Example 1165, 5-(1-{[1-(15-amino-4,7,10,13-tetraoxapentadecan-1-oyl)-4-methylpiperidin-4-yl]methyl}-1H-pyrazol-4-yl)-N-(imidazo[1,2-a]pyridin-7-ylmethyl)thiophene-2-carboxamide], for which the IC50 worked out at 577 nM. Compared with the last compound, the IC50 is about 8.6-fold higher.

On to `O=C(NCc1ccc2ncnn2c1)c1ccc(C2CCN(C(=O)c3ccccn3)CC2)s1` [Example 853, 5-[1-(pyridin-2-ylcarbonyl)piperidin-4-yl]-N-([1,2,4]triazolo[1,5-a]pyridin-6-ylmethyl)thiophene-2-carboxamide], for which the midpoint of inhibition, the IC50, lay at 9.96 nM.

Regarding `N#Cc1cc(F)c(C(=O)N2CCC(c3ccc(C(=O)NCc4ccn5ccnc5c4)cc3)CC2)c(F)c1` [Example 1095, 4-[1-(4-cyano-2,6-difluorobenzoyl)piperidin-4-yl]-N-(imidazo[1,2-a]pyridin-7-ylmethyl)benzamide], half-maximal inhibition (IC50) required 4.45 nM.

`Cc1cc(C(=O)N2CCC(c3ccc(NC(=O)NCc4ccn5ccnc5c4)cc3)CC2)cnc1C` [Example 1059, 1-(4-{1-[(5,6-dimethylpyridin-3-yl)carbonyl]piperidin-4-yl}phenyl)-3-(imidazo[1,2-a]pyridin-7-ylmethyl)urea] gave a half-maximal inhibitory concentration (IC50) of 16.4 nM.

The compound `CC(C)CC1CCCN1C(=O)c1ccc(C(=O)NCc2ccn3ccnc3c2)cc1` (centres unmarked) [Example 877, N-(imidazo[1,2-a]pyridin-7-ylmethyl)-4-{[2-(2-methylpropyl)pyrrolidin-1-yl]carbonyl}benzamide] yielded an IC50 greater than 10000 nM.

`N#Cc1cc(C(=O)N2CCC(c3ccc(NC(=O)NCc4ccn5ccnc5c4)cc3)CC2)ccc1F` [Example 1052, 1-{4-[1-(3-cyano-4-fluorobenzoyl)piperidin-4-yl]phenyl}-3-(imidazo[1,2-a]pyridin-7-ylmethyl)urea] yielded an IC50 of 27.1 nM.

`Cn1ncc2cccc(C(=O)N3CCC(c4ccc(NC(=O)NCc5ccn6ccnc6c5)cc4)CC3)c21` [Example 1146, 1-(imidazo[1,2-a]pyridin-7-ylmethyl)-3-(4-{1-[(1-methyl-1H-indazol-7-yl)carbonyl]piperidin-4-yl}phenyl)urea] registered a half-inhibitory concentration (IC50) of 1.88 nM.

`O=C(NCc1ccn2ccnc2c1)c1ccc(C2CCN(C(=O)c3ncc(F)cc3F)CC2)cc1` [Example 975, 4-{1-[(3,5-difluoropyridin-2-yl)carbonyl]piperidin-4-yl}-N-(imidazo[1,2-a]pyridin-7-ylmethyl)benzamide] gave an IC50 of 50.3 nM.

Regarding `O=C(NCc1ccn2ccnc2c1)c1ccc(C2CCN(C(=O)c3scnc3Cl)CC2)cc1` [Example 1102, 4-{1-[(4-chloro-1,3-thiazol-5-yl)carbonyl]piperidin-4-yl}-N-(imidazo[1,2-a]pyridin-7-ylmethyl)benzamide], the IC50 came out at 1.77 nM.

For `CC(C)(C)Cn1cc(-c2ccc(C(=O)NCc3ccn4ccnc4c3)s2)cn1` [Example 883, 5-[1-(2,2-dimethylpropyl)-1H-pyrazol-4-yl]-N-(imidazo[1,2-a]pyridin-7-ylmethyl)thiophene-2-carboxamide], the IC50 was found to be 0.22 nM.

`CC(Oc1cccc(F)c1)C(=O)N1CCC(c2ccc(NC(=O)NCc3ccn4ccnc4c3)cc2)CC1` (centres unmarked) [Example 1065, 1-(4-{1-[2-(3-fluorophenoxy)propanoyl]piperidin-4-yl}phenyl)-3-(imidazo[1,2-a]pyridin-7-ylmethyl)urea] registered a concentration for half-maximal inhibition (IC50) of 1.43 nM.

Take `CC(C)c1nc(C(=O)N2CCC(c3ccc(C(=O)NCc4ccn5ccnc5c4)cc3)CC2)co1` [Example 1113, N-(imidazo[1,2-a]pyridin-7-ylmethyl)-4-(1-{[2-(propan-2-yl)-1,3-oxazol-4-yl]carbonyl}piperidin-4-yl)benzamide]: the IC50 worked out at 23.1 nM.

Compound `O=C(NCc1ccc2ncnn2c1)c1ccc(C2CCN(C(=O)c3cccc(F)c3)CC2)s1` [Example 832, 5-[1-(3-fluorobenzoyl)piperidin-4-yl]-N-([1,2,4]triazolo[1,5-a]pyridin-6-ylmethyl)thiophene-2-carboxamide] showed an IC50 of 10.1 nM.

For `O=C(NCc1cn2ccnc2cn1)c1ccc(C2CCN(C(=O)CCC(F)(F)F)CC2)s1` [Example 840, N-(imidazo[1,2-a]pyrazin-6-ylmethyl)-5-[1-(4,4,4-trifluorobutanoyl)piperidin-4-yl]thiophene-2-carboxamide], the IC50 was found to be 2.75 nM.

On to `CCn1cc(C(=O)N2CCC(c3ccc(C(=O)NCc4ccn5ccnc5c4)cc3)CC2)c(C(C)C)n1` [Example 1096, 4-(1-{[1-ethyl-3-(propan-2-yl)-1H-pyrazol-4-yl]carbonyl}piperidin-4-yl)-N-(imidazo[1,2-a]pyridin-7-ylmethyl)benzamide], for which half-maximal inhibition (IC50) required 2.07 nM.

`O=C(NCc1ccn2ccnc2c1)c1ccc(C2CCN(C(=O)C3CC=CCC3)CC2)cc1` (centres unmarked) [Example 920, 4-[1-(cyclohex-3-en-1-ylcarbonyl)piperidin-4-yl]-N-(imidazo[1,2-a]pyridin-7-ylmethyl)benzamide] returned an IC50 of 7.94 nM.

The compound `CC(C)Cn1nccc1-c1ccc(C(=O)NCc2ccn3ccnc3c2)s1` [Example 899, N-(imidazo[1,2-a]pyridin-7-ylmethyl)-5-[1-(2-methylpropyl)-1H-pyrazol-5-yl]thiophene-2-carboxamide] had an IC50 of 181 nM.

In the case of `Cn1cc2ccc(C(=O)N3CCC(c4ccc(NC(=O)NCc5ccn6ccnc6c5)cc4)CC3)cc2n1` [Example 1151, 1-(imidazo[1,2-a]pyridin-7-ylmethyl)-3-(4-{1-[(2-methyl-2H-indazol-6-yl)carbonyl]piperidin-4-yl}phenyl)urea], the half-inhibitory concentration (IC50) came out at 7.78 nM.

The compound `O=C(NCc1ccn2ccnc2c1)c1ccc(-c2cnn(CC34CC5CC(CC(C5)O3)C4)c2)s1` [Example 886] displayed a half-maximal inhibitory concentration (IC50) of 0.194 nM.

The compound `Cc1nc2ccc(C(=O)N3CCC(c4ccc(NC(=O)NCc5ccn6ccnc6c5)cc4)CC3)cc2o1` [Example 1028, 1-(imidazo[1,2-a]pyridin-7-ylmethyl)-3-(4-{1-[(2-methyl-1,3-benzoxazol-6-yl)carbonyl]piperidin-4-yl}phenyl)urea] yielded a 50% inhibitory concentration (IC50) of 7.36 nM.

In turn, `O=C(NCc1ccn2ccnc2c1)c1ccc(C2CCN(C(=O)c3cccc4c3OCCO4)CC2)cc1` [Example 978, 4-[1-(2,3-dihydro-1,4-benzodioxin-5-ylcarbonyl)piperidin-4-yl]-N-(imidazo[1,2-a]pyridin-7-ylmethyl)benzamide] gave an IC50 of 2.02 nM.

On to `O=C(NCc1cn2ccnc2cn1)c1ccc(C2CCN(C(=O)C3CCOCC3)CC2)s1` [Example 841, N-(imidazo[1,2-a]pyrazin-6-ylmethyl)-5-[1-(tetrahydro-2H-pyran-4-ylcarbonyl)piperidin-4-yl]thiophene-2-carboxamide], for which the IC50 was determined as 6.13 nM. This IC50 is about 3-fold higher than that of the compound before.
